Biological target: T1, porcine cardiac ventricle myosin (pc-HMM; beta-cardiac myosin heavy chain) (Sus scrofa, UniProt P79293)
T1 construct: gene MYH7; chymotryptic heavy meromyosin (pc-HMM); also S1 (pc-S1); with myosin light chains (RLC, essential light chain)
Test: stopped-flow FRET (Trp to mant) displacement and multiple-turnover assay; kcat […] s^-1
Format: biochemical

T1 sequence (P79293 whole entry): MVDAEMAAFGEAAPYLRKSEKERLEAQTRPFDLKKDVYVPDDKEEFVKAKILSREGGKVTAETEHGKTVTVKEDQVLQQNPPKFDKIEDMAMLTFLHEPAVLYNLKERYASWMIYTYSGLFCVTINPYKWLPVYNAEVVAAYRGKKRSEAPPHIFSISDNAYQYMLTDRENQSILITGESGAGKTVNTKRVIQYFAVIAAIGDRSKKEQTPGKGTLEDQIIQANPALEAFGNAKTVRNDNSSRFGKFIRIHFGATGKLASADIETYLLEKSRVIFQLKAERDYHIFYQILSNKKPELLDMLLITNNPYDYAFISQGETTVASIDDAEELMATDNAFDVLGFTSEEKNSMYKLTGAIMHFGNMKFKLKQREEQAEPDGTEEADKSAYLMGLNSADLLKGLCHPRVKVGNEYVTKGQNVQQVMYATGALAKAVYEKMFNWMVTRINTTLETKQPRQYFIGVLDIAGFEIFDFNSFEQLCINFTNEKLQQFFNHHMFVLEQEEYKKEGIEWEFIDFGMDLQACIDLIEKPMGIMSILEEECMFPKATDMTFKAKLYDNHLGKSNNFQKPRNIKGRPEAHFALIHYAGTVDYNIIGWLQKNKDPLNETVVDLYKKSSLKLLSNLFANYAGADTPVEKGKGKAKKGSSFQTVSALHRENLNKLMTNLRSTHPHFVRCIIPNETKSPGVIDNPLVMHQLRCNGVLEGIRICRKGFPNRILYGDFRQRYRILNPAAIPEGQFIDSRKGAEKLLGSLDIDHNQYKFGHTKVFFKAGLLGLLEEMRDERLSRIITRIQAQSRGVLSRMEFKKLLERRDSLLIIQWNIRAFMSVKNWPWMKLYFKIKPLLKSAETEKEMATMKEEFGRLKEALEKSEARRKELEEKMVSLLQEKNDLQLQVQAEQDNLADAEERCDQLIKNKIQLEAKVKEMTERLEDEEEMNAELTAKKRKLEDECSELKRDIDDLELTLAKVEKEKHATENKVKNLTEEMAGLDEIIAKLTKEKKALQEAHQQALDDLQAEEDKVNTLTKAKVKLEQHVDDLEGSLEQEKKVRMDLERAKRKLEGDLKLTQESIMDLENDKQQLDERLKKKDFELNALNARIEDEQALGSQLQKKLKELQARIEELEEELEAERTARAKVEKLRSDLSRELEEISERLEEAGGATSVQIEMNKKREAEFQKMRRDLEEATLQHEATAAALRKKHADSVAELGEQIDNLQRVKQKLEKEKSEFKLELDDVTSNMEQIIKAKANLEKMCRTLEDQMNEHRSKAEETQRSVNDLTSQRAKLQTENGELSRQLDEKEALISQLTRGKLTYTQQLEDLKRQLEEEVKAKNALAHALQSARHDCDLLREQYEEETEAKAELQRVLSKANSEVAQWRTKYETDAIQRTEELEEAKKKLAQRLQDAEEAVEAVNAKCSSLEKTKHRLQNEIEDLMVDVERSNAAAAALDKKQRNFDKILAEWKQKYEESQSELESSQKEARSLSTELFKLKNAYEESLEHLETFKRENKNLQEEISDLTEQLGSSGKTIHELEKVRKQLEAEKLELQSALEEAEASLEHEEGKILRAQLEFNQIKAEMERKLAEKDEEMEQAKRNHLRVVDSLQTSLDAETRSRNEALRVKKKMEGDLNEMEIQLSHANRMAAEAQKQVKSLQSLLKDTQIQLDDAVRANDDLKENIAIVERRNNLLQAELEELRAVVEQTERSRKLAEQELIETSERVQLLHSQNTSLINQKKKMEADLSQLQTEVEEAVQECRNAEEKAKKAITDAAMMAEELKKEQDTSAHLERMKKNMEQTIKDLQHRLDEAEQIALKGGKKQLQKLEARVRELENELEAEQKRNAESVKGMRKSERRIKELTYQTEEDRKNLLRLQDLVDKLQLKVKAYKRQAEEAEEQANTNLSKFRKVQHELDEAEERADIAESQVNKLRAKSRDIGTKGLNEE

kcat (s^-1) / Mean: 0.0282 s⁻¹
Compound: CNc1ccccc1C(=O)O[C@H]1C[C@H](n2cnc3c(N)ncnc32)O[C@@H]1COP(=O)(O)OP(=O)(O)OP(=O)(O)O [mant.dATP]

From article PMC10819765, “The biochemically defined super relaxed state of myosin—A paradox” (The Journal of Biological Chemistry, 2023)
